What all share (assay type): cell-based
In experiment [1] the test system is human alveolar adenocarcinoma cell line (H358). The source says: Pub. […] Cells were pipetted into the mold and allowed 3-5 days to form 3-D clusters, mimicking miniature tumors. The cell clusters were removed from the mold by washing and gentle pipetting. The cell clusters were placed in media containing 0.5% FBS. The clusters were dispensed into 96-well plates at a density of approximately 12-15 clusters per well for testing with the therapeutic composition designated herein as “GZ17” and a known chemotherapeutic agent (doxorubicin, aka adriamycin).
The cell clusters were tested against GZ17 and doxorubicin individually at various dosages, and then against the combination therapeutic containing both agents.
(§1) 96-well cell culture plates were loaded with increasing doses of GZ17 (graph on left) within a row. The doses were each added to 8 rows of each plate for 8 replicates at each dose. Cell clusters were pipetted into each well, and exposed for 24 hours to GZ17. At the completion of 24 hours, the wells were treated with 20 microliters of Prestoblue and allowed to incubate for up to 4 hours. The plates were read at 2-4 different time points after exposure to Prestoblue ranging from 30 minutes to 4 hours. The one-hour time point was the most often used and reported. The plates were loaded into a Perkin Elmer Enspire plate reader and each well was excited at 490 nm and read at 560 nm wavelengths. Relative fluorescence for each well was read.
The chemotherapy classification of paclitaxel (also known as taxol) is a mitotic inhibitor. It works by stabilizing the microtubules. The microtubules are part of the cytoskeleton of the cell. When the cells go into cell division, the microtubules must disassemble so that the cell can divide. However, with paclitaxel, the microtubule polymer can't disassemble, and thus the cells can't divide which triggers apoptosis, or programmed cell death. There are subcategories of drugs in the mitotic inhibitor class including the vinca alkaloids (vincristine and vinblastine) and the colchicines class, podophyllotoxin and griseofulvin. Other drugs that work like paclitaxel are the taxanes and docotaxel.
The study was again repeating using fluorouracil. Fluorouracil is an anti-metabolite chemotherapy. It mimics pyrimidine and incorporates into the DNA and RNA blocking the ability of the cell to divide, and eventually ending in death of the cancer cells. Other drugs in this category include cytarabine and 6-azauracil.
(§2) The powder was reconstituted in deionized water and agitated to ensure substantial homogeneity.

Experiment [2] deals with human ovarian cancer cell line (A1847). Description: 3-D ovarian cancer cell cluster viability (Prestoblue fluorescence). The conditions noted are these: for doses giving a statistically significant decrease in live cells: agent alone; for dose that had to be reached before the agent alone had an effect: ovarian cancer spheroids. On the procedure:
as §1
The human ovarian cancer cell line (A1847) was used to create miniature tumors by loading the individual cells in a micromold according to U.S. Pat. App. Pub. […] Cells were pipetted into the mold and allowed 2-3 days to form 3-D clusters, mimicking miniature tumors. Cell clusters were removed from the mold by washing and gentle pipetting. Cell clusters were placed in media containing 0.5% FBS. The clusters were dispensed into 96-well plates at a density of approximately 10-15 clusters per well. […]
as §2

For experiment [3] the test system is unchanged. The experiment is described as above. The conditions noted are these: paclitaxel alone at 3.16 μM.

This note sets out measurements from patent US20150140125A1, “SYNERGISTIC CANCER THERAPY DRUG COMBINATIONS” (Life Plus, LLC, priority 2013, published 2015).

“Also recorded” adds a separate entry of the source.

Turning to `O=C(O)CCCc1ccc(N(CCCl)CCCl)cc1` [chlorambucil], the “effect of the agent alone on lung cancer spheroids” value in experiment [1] (agent alone) is reported as “no effect”. For the same compound, in experiment [2], the “effect of the agent alone on ovarian cancer clusters” value was “no effect on its own”.
Consider `N.N.[Cl][Pt][Cl]` [cisplatin], for which, in experiment [2], the “doses giving a statistically significant decrease in live cells” value is not below 31.6 µM and the “dose that had to be reached before the agent alone had an effect” value was not below 10 µM.
Turning to `COc1cccc2c1C(=O)c1c(O)c3c(c(O)c1C2=O)C[C@@](O)(C(=O)CO)C[C@@H]3O[C@H]1C[C@H](N)[C@H](O)[C@H](C)O1` [doxorubicin], the “relative fluorescence (live cells) with increasing dose” value in experiment [1] (agent alone, 24 h exposure) is “fluorescence declined”. In addition, the “percent of the cancer cells caused to die” value in experiment [1] (doxorubicin alone, 1.58 μM, 24 h) is 36%. Further, the “reduction in the number of cells from the baseline” value in experiment [1] (doxorubicin alone, 0.002 to 0.158 μM) is reported as “no statistically significant reduction; also recorded: had no effect”. The “doses giving a statistically significant decrease in live cells” value in experiment [2] is not below 0.5 µM.
On to `O=c1[nH]cc(F)c(=O)[nH]1` [fluorouracil], for which the “doses giving a significant decrease in cell numbers” value in experiment [1] (agent alone) is not below 1.58 µM. The “dose that had to be reached before the agent alone had more than little effect” value in experiment [1] (agent alone, lung cancer spheroids) is not below 1.58 µM. Moreover, in experiment [2], the “effect of the agent alone on ovarian cancer clusters” value is reported as “the dose response was minimal” and the “dose that had to be reached before the agent alone had an effect” value was not below 3.16 µM.
Take `CN(Cc1cnc2nc(N)nc(N)c2n1)c1ccc(C(=O)N[C@@H](CCC(=O)O)C(=O)O)cc1` [methotrexate]: the “effect of the agent alone on lung cancer spheroids” value in experiment [1] (agent alone) was “no effect alone”.
As to `CC(=O)O[C@H]1C(=O)[C@@]2(C)[C@H]([C@H](OC(=O)c3ccccc3)[C@]3(O)C[C@H](OC(=O)[C@H](O)[C@@H](NC(=O)c4ccccc4)c4ccccc4)C(C)=C1C3(C)C)[C@]1(OC(C)=O)CO[C@@H]1C[C@@H]2O` [paclitaxel], the “dose at which the number of live cells is reduced (other doses not significant)” value in experiment [1] (paclitaxel alone) was 5 µM. Besides, in experiment [2], the “doses giving a statistically significant decrease in live cells” value was found to be 0.01 µM and the “dose that had to be reached before the agent alone had an effect” value was not below 31.6 µM. Also, the “effect on cancer cell death” value in experiment [3] is given as “no effect on cancer cell death”.
